Results published in US10695341B2, “Compositions and methods for treating endometriosis” (UNIVERSITY OF SOUTH FLORIDA, priority 2014, dated 2020).

Columns and labels:
[1] = system: life-extended human endometriotic cells; assay: CellTiter-glo survival assay, life-extended human endometriotic cells, HCQ; format: cell-based; conditions: 25 μM HCQ, 5 days, cells from two different types of lesions, p<0.0001
Experimental: Primary human endometriotic cells culture conditions and life extension have been previously described. These cells were derived from two different types of lesions (two independent patients) which were assessed separately as described below. Briefly, cells were maintained in MCDB 131:Medium 199 (1:1 ratio) supplemented with 8% FBS, penicillin/streptomycin, and insulin/transferrin/selenium (ITS). Cells were life-extended using SV40 Large T antigen. Retroviral particles generated in HEK293T were used to infect the primary cells. Media containing puromycin (2.5 μg/ml) was used to select primary cells resistant colonies. In addition, we obtained the T-HESC cell line, which are human endometrial stromal cells derived from a uterine myoma (ATCC, Manassas, Va.). This cell line was maintained in phenol red-free DMEM/F12 (1:1) containing 8% charcoal-dextran treated FBS, 500 ng/mL puromycin, 1% ITS+ Premix (BD Bioscience, San Jose, Calif.), and 15 mM HEPES. The cell lines used in the present study were tested to be mycoplasma negative and STR (short tandem repeat) profiled (Genetica DNA Laboratories, Cincinnati, Ohio). Endometriotic cells were seeded at 50,000 cells/well in a 24-well plate, whereas T-HESC cells were seeded at 250,000 cells/well in a 6-well plate. […] Cell viability was then assessed using CellTiter-glo reagent (Promega, Madison, Wis.).

[2] = system: uterine horns and ovaries; assay: Murine tissue microarray H&E and immunohistochemistry (uterine horns, ovaries); format: in vivo, mouse
Text: To determine whether HCQ treatment alters the histopathology (tissue organization) of the recipient's uterine horns and other tissues, a murine tissue microarray (TMA) comprised of 113 cores and performed H&E as well as immunohistochemical staining was developed. The TMA contained uterine horns and ovaries from 10 PBS- and 10 HCQ-treated mice, as well as a mammary gland, a kidney, a lymph node and a small intestine from a PBS-treated mouse for use as antibody controls. […] Estrogen receptor α (ERα) was primarily localized to the epithelial cell layer of the endometrial glands, while progesterone receptor (PR) appeared to be evenly distributed between the stromal and epithelial cell compartments. However, the PR staining was comparatively much weaker to that for ERα. […] LC3B expression appeared more intense in HCQ-treated mice relative to PBS-treated mice in both the stromal and epithelial compartments (FIGS. 19A-19X). […] Collected samples were immediately preserved in 10% neutral buffered formalin at the animal facility. Samples were embedded in paraffin, sectioned, and transferred to slides for hematoxylin/eosin and immunohistochemical staining. A pathologist reviewed each case and delimited the region of interest, containing epithelial and stromal cells, for each specimen. A mouse tissue microarray was prepared at the Tissue Core Facility at the Moffitt Cancer Center. The mouse tissue microarray contained a total of 113 core samples, which included 10 uterine horns and 10 ovaries from both PBS and HCQ treated mice. As control specimens for the utilized antibodies, the TMA included mouse mammary tissue, […], small intestine, and lymph nodes from a PBS treated mouse. Lesions were analyzed from independent blocks. Slides were stained using a Leica Bond RX automated system (Leica Biosytems, Buffalo Grove, Ill.) following manufacturers instructions with proprietary reagents. Slides were deparaffinized on an automated system with Dewax Solution (Leica Biosystems). The antigen retrieval method used for Progesterone Receptor (PR) was enzymatic with Enzyme Solution 1 at 15 min (Leica), for vimentin and Estrogen Receptor (ER) was heat induced with Epitope Retrieval Solution 1 at 20 min (Leica), for cytokeratin 8 (CK-8) was heat induced with Epitope Retrieval Solution at 10 min (Leica), and for LC3B was heat-induced with Epitope Retrieval Solution 1 at 10 min (Leica Biosystems). All antibodies were diluted in Dako antibody diluent (Carpenteria, Calif.): PR (# ab131486, 1:500, Abcam, Cambridge, Mass.), vimentin (#5741 (D21H3), 1:100, Cell Signaling, Danvers, Mass.), ERα (# ab32063 ([…]), 1:200, Abcam, Cambridge, Mass.), Cytokeratin-8 (# ab53280 (E[…]), 1:200, Abcam, Cambridge, Mass.), and LC3B (# ab51520, 1:1,500, Abcam, Cambridge, Mass.) and incubated for 30 min. The Leica Bond Polymer Refine Detection System was used with a polymer incubation for 8 min. Hematoxylin was used as counterstain and slides were dehydrated and covered with a coverslip, following standard histological protocol.

luminal epithelium of the uterine horn endometrium (H&E, TMA) ([2]; HCQ-treated mice): irregular pattern
intensity or localization of IHC markers in ovaries ([2]; HCQ-treated relative to PBS-treated mice): no marked differences
SMILES: CCN(CCO)CCCC(C)Nc1ccnc2cc(Cl)ccc12 (stereo not drawn) [HCQ, hydroxychloroquine]
cell survival of human endometriotic cells [1]: marked reduction
ERα and PR staining pattern or intensity in uterine horns ([2]; PBS vs HCQ-treated mice): no differences
vimentin and CK8 localization in uterine horns ([2]; stromal and epithelial compartments, independently of HCQ treatment): appropriately localized
LC3B expression in uterine horns (IHC) ([2]; stromal and epithelial compartments, relative to PBS): more intense
